Like-named read-outs stand apart in the source and are kept apart here.
Experiments:
serum TxA2 synthase = biological target: T1, serum TxA2 synthase (Rattus norvegicus, UniProt P49430); experiment: in vitro TxA2 synthase inhibiting activity in serum (TxB2 by RIA); assay type: biochemical
T1 construct: from tissue; host or cells: rat blood / serum (remnant kidney and sham operated rats)
T1 sequence (P49430 1-533): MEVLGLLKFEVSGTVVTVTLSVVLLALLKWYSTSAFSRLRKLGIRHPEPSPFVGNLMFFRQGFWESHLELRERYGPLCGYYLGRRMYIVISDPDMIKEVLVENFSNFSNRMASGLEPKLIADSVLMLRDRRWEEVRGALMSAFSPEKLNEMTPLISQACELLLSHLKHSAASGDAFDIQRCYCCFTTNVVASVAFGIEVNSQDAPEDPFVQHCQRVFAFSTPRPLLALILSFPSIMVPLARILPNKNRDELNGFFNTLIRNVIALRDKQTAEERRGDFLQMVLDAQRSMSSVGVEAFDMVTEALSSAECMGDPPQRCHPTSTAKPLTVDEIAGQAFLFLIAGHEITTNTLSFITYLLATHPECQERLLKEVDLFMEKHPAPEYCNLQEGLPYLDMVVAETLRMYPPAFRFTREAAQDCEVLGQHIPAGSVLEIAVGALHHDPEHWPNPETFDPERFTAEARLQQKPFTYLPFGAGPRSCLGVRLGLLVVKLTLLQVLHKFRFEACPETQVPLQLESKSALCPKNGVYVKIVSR
Protocol: (§1) Charles River C.D. male rats of 6 weeks of age were used for this experiment. […] Four weeks after the second operation the blood pressure was measured and the rats were placed in metabolic cages for evaluation of proteinuria, measured by the method of Lowry. Only the animals with a blood pressure ≥170 mm Hg and an urinary protein excretion ≥100 mg/day were used. Comparative experiments were performed using sham operated rats. Also the in vitro TxA2 synthase inhibiting activities in serum and in isolated glomeruli were studied and compared. Glomerula preparation was performed according to the method previously described and TxB2 was measured by RIA.

glomerular TxA2 synthase = biological target: T2, glomerular TxA2 synthase (Rattus norvegicus, UniProt P49430); experiment: in vitro TxA2 synthase inhibiting activity in isolated glomeruli (TxB2 by RIA); assay type: biochemical
T2 construct: from tissue; host or cells: isolated glomeruli of rat kidney (remnant kidney and sham operated rats)
T2 sequence (P49430 1-533): T1 sequence (P49430 1-533)
Protocol: as §1

[1] = test system: doxorubicin induced nephrosis; experiment: doxorubicin induced nephrosis in rats (oral treatment); assay type: in vivo, rat; conditions: 50 mg/kg b.i.d. oral
Protocol: The compound 1,2-dihydro-3-(1-imidazolyl)-6-carboxy-naphthalene (internal code FCE 22178) was orally administered, for doxorubicin induced nephrosis, to rats at a dosage of 50 mg/kg b.i.d. for 7 days starting from the 21st day after doxorubicin injection. A reduction in both proteinuria (from 1018±102 to 751±49 mg/24 h p<0.005) and creatinine serum levels (from 1.85±0.26 to 0.97±0.009 mg/dl p<0.001) was observed.
Moreover, in the spontaneous focal glomerulonephritis of the MNS rats, FCE 22178 was administered at the dosage of 50 mg/kg p.o. die+100 mg/kg/die in drinking water starting from the first month of age and all along the life of the animal and in comparison with a not treated group.
Compound 1,2-dihydro-3-(1-imidazolyl)-6-carboxynaphthalene, internal code FCE 22178, for instance, in this model at the oral dosage of 50 mg/kg b.i.d. for 7 days starting from the 21st after doxorubicin injection lowered triglycerides serum levels from 783±152 to 481.8±84 mg/dl.

[2] = test system: spontaneous focal glomerulonephritis of the MNS rats; experiment: spontaneous focal glomerulonephritis in Milan Normotensive Strain (MNS) rats; assay type: in vivo, rat
Protocol: Moreover, in the spontaneous focal glomerulonephritis of the MNS rats, FCE 22178 was administered at the […] not treated group.
Sclerotic glomeruli show massive deposition of PAS-stained material.
Flattening and fusion of the foot processes, as well as formation of blebs and of electron dense lysosomes, together with the frequent detachment of the cell from the GMB is regarded to be related to the massive leakage of proteins through the glomerulus.

[3] = serum of RRM (remnant kidney) rats, read-out: IC50, serum TxB2 production / TxA2 synthesis
[4] = glomeruli of RRM (remnant kidney) rats, read-out: IC50, glomerular TxB2 production

`Cl.O.O=C(O)/C=C/c1ccc(Cn2ccnc2)cc1` [OKYO46, (E)-3-[4-(1H-imidazol-1-ylmethyl)-phenyl]-2-propenoic acid monohydrochloride monohydrate, reference compound] was tested, and the IC50 (serum TxA2 synthase; [3]) was 0.6 nM, the IC50 (serum TxA2 synthase; serum of control sham operated rats, read-out: IC50, serum) was 50000 nM and the “selectivity glomeruli vs serum” value (glomerular TxA2 synthase; control sham operated rats) was “losed his selectivity”. For the same compound, the IC50 (glomerular TxA2 synthase; [4]) was 0.09 nM and the IC50 (glomerular TxA2 synthase; glomeruli of control sham operated rats, read-out: IC50, glomeruli) was 1 nM.

For `O=C(O)c1ccc2c(c1)C=C(n1ccnc1)CC2` [FCE 22178, 1,2-dihydro-3-(1-imidazolyl)-6-carboxynaphthalene], the IC50 (serum TxA2 synthase; [3]) was 1.7 nM, the IC50 (serum TxA2 synthase; serum of control sham operated rats, read-out: IC5 (so in the source), serum) was 1 nM and the “selectivity for glomerular TxA2 synthase (vs serum)” value (glomerular TxA2 synthase; RRM rats, compared to OKYO46) was “greater selectivity for glomerular TxA2 synthase”. It also gave an IC50 (glomerular TxA2 synthase; [4]) of 0.032 nM, an IC50 (glomerular TxA2 synthase; glomeruli of control sham operated rats, read-out: IC5 (so in the source), glomeruli) of 0.07 nM and a creatinine serum levels ([1]; 7 days from 21st day after doxorubicin, from 1.85±0.26, p<0.001) of 0.97 ± 0.009 mg/dL. The triglycerides serum levels ([1]; 7 days from 21st day after doxorubicin, from 783±152) was 481.8 ± 84 mg/dL, the proteinuria ([1]; 7 days from 21st day after doxorubicin, from 1018±102, p<0.005) was 751±49 mg/24 h and the “urine TxB2 levels” value ([1]; 7 days, from 20.3±2.5 ng/24 h) was “under the detection limit of the method”. For the same compound, the “serum TxB2 levels” value ([1]; 7 days, from 536±55 ng/ml) was 92 ± 8.3 ng/mL, the “production of TxA2 (measured as TxB2 levels) in isolated glomeruli” value ([2]; 50 mg/kg p.o. die + 100 mg/kg/die in drinking water from first month of age, untreated 4.44±1.2 at 8 months, p<0.01) was 2.77±0.53 ng/mg prot and the TxB2 in urine ([2]; 50 mg/kg p.o. die + 100 mg/kg/die in drinking water, pattern as in isolated glomeruli (greatly reduced)) was “The same pattern was observed in urine”. It also gave a total cholesterol ([2]; 14 months old rats treated for 2 months, from 223±36) of 130.5 ± 12.2 mg/dL, a phospholipids ([2]; 14 months old rats treated for 2 months, from 338.6±56) of 197.8 ± 21 mg/dL and a triglycerides ([2]; 14 months old rats treated for 2 months, from 399.6±105) of 169.3 ± 26.1 mg/dL. For the same compound, the “glomerular filtration rate (GFR)” value ([2]; adult MNS rats, 50 mg/kg p.o. die + 100 mg/kg/die in drinking water, printed: 1210±38 in controls vs treated, p<0.01) was 816±45 μl/min/g k.w, the proteinuria ([2]; adult MNS rats, 50 mg/kg p.o. die + 100 mg/kg/die in drinking water, vs 428.8±42.3 in controls, p<0.01) was 237±30.3 mg/24 h and the “number of sclerotic glomeruli” value ([2]; light microscopy, aged (14 months) MNS rats, control 27%, p<0.05) was 22%. For the same compound, the “entity of flattening and fusion of foot processes in non sclerotic glomeruli” value ([2]; ultrastructural investigation, treated vs untreated MNS rats) was “definitly lower in treated animals”.

Reference: patent US4882347A, “"N-imidazolyl derivatives of bicyclic compounds and pharmaceutical compositions containing the same"” (Farmitalia Carlo Erba, S.r.l., priority 1987, dated 1989)
